Legend:
[1] = target: T1, STING (Homo sapiens, UniProt Q86WV6); test: Human FB STING antagonist assay (IFN-a/b release); type: cell-based; details: Human skin fibroblasts, 2h pre-treatment, 300 nM GSK STING agonist (CAS number: 2138299-34-8) for 20 h, release of IFN-a/b by HEK-Blue IFN-α/β bioassay
T1 construct: endogenous in cells; host or cells: human skin fibroblasts
Method: STING antagonist activity can be determined by a human fibroblast antagonist assay. For this, human skin fibroblasts are pre-treated for 2h with a serial dilution of the compound, and are then stimulated for 20 hours with 300 nM STING agonist (e.g. from GSK, CAS number: 2138299-34-8). Supernatants are then harvested and assessed for IFN-a/b release, which indicates STING activation. IFN-a/b concentration in the supernatant is determined, e.g. using an IFN-α/β bioassay. IC50 values are calculated using a non-linear regression fitting, variable slope (4 parameters).
Human skin fibroblasts were pre-treated for 2h with a serial dilution of test compound followed by stimulation with mock or 300 nM GSK STING agonist (CAS number: 2138299-34-8). Supernatants were harvested after 20 h of STING agonist stimulation. Release of IFN-a/b was determined using HEK-Blue IFN-α/β bioassay (Invivogen). Cellular viability was assessed using Alamar Blue HS assay. IC50 values were estimated using a non-linear regression fitting, variable slope (4 parameters) in GraphPad Prism 9.3.1.

[2] = target: T2, C-terminal domain (CTD) of human STING (Homo sapiens, UniProt Q86WV6); test: STING binding FP assay II (as FP assay I, lower STING concentration); set-up: recombinant human STING protein (155-379); details: 7 nM STING in buffer A, 4 nM fluorescein-labelled STING ligand (Probe 1)
Method: The interaction between molecules and the C-terminal domain (CTD) of human STING was evaluated using a competition binding assay. In this assay, recombinant human STING protein (155-379) and a STING binding fluorescent probe were employed. Upon binding of the probe to STING, the rotation of the fluorescent probe is slowed due to the larger molecular size of the protein-bound complex. As a result, emitted light retains its plane of polarization, leading to an increase in fluorescence polarization. Molecules competing for the probe binding site displace the probe, which leads to rapid randomization of the polarization plane of the emitted light and a subsequent decrease in measured fluorescence polarization signal. Change in polarization was measured, allowing a comparative evaluation of the binding affinities of different compounds to the target protein.
The assay was performed in 96-well plates (ThermoFisher, cat.# 237108) containing 100 µl : 10 µL test compound in 10% DMSO and buffer A (150 mM NaCl, 50 mM HEPES pH 7.5, 1 mM DTT) + 90 µL prepared master mix solution of: 4 nM fluorescein-labelled STING ligand (Probe 1; synthesis described above) in buffer A + 0.055% Tween-20 (v/v) and 35 nM STING in buffer A. Post mixing, plates were agitated at 600 rpm and incubated for 20 min at room temperature. Subsequent measurements of the fluorescence polarization signal were made on a BioTek Synergy-H1 plate reader, using a polarization filter; excitation: 485/20 nm, emission: 528/20 nm) with a gain-setting of 75. IC50 values were determined using a standard non-linear regression four-parameter curve fit in Graphpad Prism.
The procedure for STING binding FP assay II is the same as described for STING binding FP assay I, except for a lower STING concentration. In STING binding FP assay II, a concentration of 7 nM STING in buffer A was used.
Target sequence in this assay (Q86WV6 155-379): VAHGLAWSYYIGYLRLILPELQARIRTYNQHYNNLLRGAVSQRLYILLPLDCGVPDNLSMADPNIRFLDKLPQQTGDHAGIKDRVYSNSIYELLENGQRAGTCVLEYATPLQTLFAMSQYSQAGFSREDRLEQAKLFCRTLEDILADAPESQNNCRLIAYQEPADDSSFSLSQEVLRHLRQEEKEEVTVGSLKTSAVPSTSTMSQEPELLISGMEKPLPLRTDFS

[3] = target: T2, C-terminal domain (CTD) of human STING; test: STING binding TR-FRET assay (CisBio Human STING WT Binding Kit); set-up: purchased CisBio 64BDSTGPEG; details: recombinant human STING with His-tag, D2-labeled active site probe, 60 min at room temperature
Method: STING binding can be determined by a time-resolved FRET assay. For instance, a STING protein having a His-tag can be used. A D2-labeled active site probe can be used to accept 620 nm emission from Anti-HIS-Tb-STING. Increased fluorescence is measured at 665 nm. Molecules that compete for the probe binding site will result in a lower 665 nm signal. The assay can be performed in low-volume white 96-well plates containing 5 µL compounds in an appropriate diluent buffer. Following 60 minutes incubation at room temperature in the dark, fluorescence emission at 665 nm is measured following 330 nm xenon flash excitation. pIC50 values can be determined using a standard four parameter curve fit.
The affinity of molecules to the C-terminal domain (CTD) of human STING was determined using a commercial Human STING WT Binding Kit (CisBio, cat.# 64BDSTGPEG). In this time-resolved FRET assay, a recombinant human STING protein construct with a His-tag was employed. When bound to STING, a D2-labeled active site probe accepts the 620 nm emission from Anti-HIS-Tb-STING and an increase in fluorescence is measured at 665 nm. Molecules that compete for the probe binding site will result in a low 665 nm signal. The assay was run in CisBio low-volume white 96-well plates (catalog# 66PL96005) containing 5 µL compounds in Diluent Buffer (supplied with the CisBio kit). A solution of 1xSTING, 1x Anti-HIS-Tb and 1X D2-probe in TB detection buffer (kit supplied) was added to the plate. Plates were centrifuged for 2 min at 500 rpm, incubated for 60 min at room temperature in the dark, and then fluorescence emission at 665 nm following 330 nm xenon flash excitation on an BioTek synergy H1 multimode reader (Agilent) was measured. The plC50 values were determined using a standard four parameter curve fit in GraphPad Prism.
Target sequence in this assay (Q86WV6 135-379 limits assumed): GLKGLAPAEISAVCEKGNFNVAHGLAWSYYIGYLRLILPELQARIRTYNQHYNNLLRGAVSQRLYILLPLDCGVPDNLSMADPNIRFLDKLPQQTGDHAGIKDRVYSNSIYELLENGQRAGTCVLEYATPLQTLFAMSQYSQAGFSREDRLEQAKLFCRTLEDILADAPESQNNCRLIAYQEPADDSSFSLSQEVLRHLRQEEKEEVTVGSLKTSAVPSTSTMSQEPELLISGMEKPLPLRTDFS

T1 sequence (Q86WV6 whole entry): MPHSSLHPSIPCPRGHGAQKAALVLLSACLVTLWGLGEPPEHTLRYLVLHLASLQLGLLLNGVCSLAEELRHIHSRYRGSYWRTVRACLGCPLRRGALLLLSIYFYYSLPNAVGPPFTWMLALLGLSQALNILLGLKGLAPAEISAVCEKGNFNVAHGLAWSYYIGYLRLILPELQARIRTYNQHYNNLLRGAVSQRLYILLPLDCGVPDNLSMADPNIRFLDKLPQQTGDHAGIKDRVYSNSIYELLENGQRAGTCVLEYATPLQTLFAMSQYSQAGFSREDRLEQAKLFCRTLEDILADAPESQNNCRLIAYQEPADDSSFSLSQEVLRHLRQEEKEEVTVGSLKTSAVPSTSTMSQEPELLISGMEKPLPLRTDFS

| Structure (SMILES) | IC50 [1] [µM] | IC50 [2] [µM] | IC50 [3] [µM] |
| --- | --- | --- | --- |
| CCn1nc(C)cc1C(=O)N=c1n(C)c2cc(C(N)=O)ccc2n1CCC(CCn1c(=NC(=O)c2cc(C)nn2CC)n(C)c2cc(C(N)=O)ccc21)OCC(=O)N(CCOC)CCOC (stereo not shown) [Example 13, 1-(3-{[Bis(2-methoxyethyl)carbamoyl]methoxy}-5-{5-carbamoyl-2-[(1-ethyl-3-methyl-5-pyrazolyl)carbonylimino]-3-methyl-2,3-dihydro-1H-1,3-benzimidazol-1-yl}pentyl)-2-[(1-ethyl-3-methyl-5-pyrazolyl)carbonylimino]-3-methyl-2,3-dihydro-1H-1,3-benzimidazole-5-carboxamide] | 7.8 | 0.002 |  |
| CCn1nc(C)cc1C(=O)N=c1n(C)c2cc(C(N)=O)ccc2n1CCC(CCn1c(=NC(=O)c2cc(C)nn2CC)n(C)c2cc(C(N)=O)ccc21)OCC(=O)N(Cc1ccc(OC)cc1)Cc1ccccn1 (stereo not shown) [Example 19, 1-(5-{5-Carbamoyl-2-[(1-ethyl-3-methyl-5-pyrazolyl)carbonylimino]-3-methyl-2,3-dihydro-1H-1,3-benzimidazol-1-yl}-3-({[(p-methoxyphenyl)methyl][(2-pyridyl)methyl]carbamoyl}methoxy)pentyl)-2-[(1-ethyl-3-methyl-5-pyrazolyl)carbonylimino]-3-methyl-2,3-dihydro-1H-1,3-benzimidazole-5-carboxamide] |  |  | 0.00111 |
| CCn1nc(C)cc1C(=O)N=c1n(C)c2cc(C(N)=O)ccc2n1CCC(CCn1c(=NC(=O)c2cc(C)nn2CC)n(C)c2cc(C(N)=O)ccc21)OCC(=O)N1CCN(C(C)=O)CC1 (stereo not shown) [Example 12, 1-{3-[2-(4-Acetyl-1-piperazinyl)-2-oxoethoxy]-5-{5-carbamoyl-2-[(1-ethyl-3-methyl-5-pyrazolyl)carbonylimino]-3-methyl-2,3-dihydro-1H-1,3-benzimidazol-1-yl}pentyl}-2-[(1-ethyl-3-methyl-5-pyrazolyl)carbonylimino]-3-methyl-2,3-dihydro-1H-1,3-benzimidazole-5-carboxamide] | 9.8 | 0.0017 |  |
| CCn1nc(C)cc1C(=O)N=c1n(C)c2cc(C(N)=O)ccc2n1CCC(CCn1c(=NC(=O)c2cc(C)nn2CC)n(C)c2cc(C(N)=O)ccc21)OCC(=O)N1CCC[C@H]1c1nnn[nH]1 (stereo partly drawn) [Example 28, 1-(3-{2-[(S)-2-(1H-Tetrazol-5-yl)-1-pyrrolidinyl]-2-oxoethoxy}-5-{5-carbamoyl-2-[(1-ethyl-3-methyl-5-pyrazolyl)carbonylimino]-3-methyl-2,3-dihydro-1H-1,3-benzimidazol-1-yl}pentyl)-2-[(1-ethyl-3-methyl-5-pyrazolyl)carbonylimino]-3-methyl-2,3-dihydro-1H-1,3-benzimidazole-5-carboxamide] | 3.9 | 0.0084 |  |
| CCn1nc(C)cc1C(=O)N=c1n(C)c2cc(C(N)=O)ccc2n1CCC(CCn1c(=NC(=O)c2cc(C)nn2CC)n(C)c2cc(C(N)=O)ccc21)OCC(=O)N1CCOC[C@@H]1c1ccccc1 (stereo partly drawn) [Example 30, 1-(3-{2-[(S)-3-Phenyl-4-morpholinyl]-2-oxoethoxy}-5-{5-carbamoyl-2-[(1-ethyl-3-methyl-5-pyrazolyl)carbonylimino]-3-methyl-2,3-dihydro-1H-1,3-benzimidazol-1-yl}pentyl)-2-[(1-ethyl-3-methyl-5-pyrazolyl)carbonylimino]-3-methyl-2,3-dihydro-1H-1,3-benzimidazole-5-carboxamide] | 3.6 | 0.0037 |  |
| CCn1nc(C)cc1C(=O)N=c1n(C)c2cc(C(N)=O)ccc2n1CCC(CCn1c(=NC(=O)c2cc(C)nn2CC)n(C)c2cc(C(N)=O)ccc21)OCC(=O)N1CCC[C@H]1C(=O)N1CCc2cc(OC)ccc2C1 (stereo partly drawn) [Example 26, 1-[3-(2-{(S)-2-[(6-Methoxy-1,2,3,4-tetrahydro-2-isoquinolyl)carbonyl]-1-pyrrolidinyl}-2-oxoethoxy)-5-{5-carbamoyl-2-[(1-ethyl-3-methyl-5-pyrazolyl)carbonylimino]-3-methyl-2,3-dihydro-1H-1,3-benzimidazol-1-yl}pentyl]-2-[(1-ethyl-3-methyl-5-pyrazolyl)carbonylimino]-3-methyl-2,3-dihydro-1H-1,3-benzimidazole-5-carboxamide] | 1.4 | 0.0035 |  |
| CCn1nc(C)cc1C(=O)N=c1n(C)c2cc(C(N)=O)ccc2n1CCC(CCn1c(=NC(=O)c2cc(C)nn2CC)n(C)c2cc(C(N)=O)ccc21)OCC(=O)Nc1cc(C)[nH]n1 (stereo not shown) [Example 22, 1-{3-[(N-5-Methyl-3-pyrazolylcarbamoyl)methoxy]-5-{5-carbamoyl-2-[(1-ethyl-3-methyl-5-pyrazolyl)carbonylimino]-3-methyl-2,3-dihydro-1H-1,3-benzimidazol-1-yl}pentyl}-2-[(1-ethyl-3-methyl-5-pyrazolyl)carbonylimino]-3-methyl-2,3-dihydro-1H-1,3-benzimidazole-5-carboxamide] | 6 | 0.0128 |  |
| CCNC(=O)COC(CCn1c(=NC(=O)c2cc(C)nn2CC)n(C)c2cc(C(N)=O)ccc21)CCn1c(=NC(=O)c2cc(C)nn2CC)n(C)c2cc(C(N)=O)ccc21 (stereo not shown) [Example 29, 1-{3-[(N-Ethylcarbamoyl)methoxy]-5-{5-carbamoyl-2-[(1-ethyl-3-methyl-5-pyrazolyl)carbonylimino]-3-methyl-2,3-dihydro-1H-1,3-benzimidazol-1-yl}pentyl}-2-[(1-ethyl-3-methyl-5-pyrazolyl)carbonylimino]-3-methyl-2,3-dihydro-1H-1,3-benzimidazole-5-carboxamide] | 5.2 | 0.0071 |  |
| CCOC(=O)COC(CCn1c(NC(=O)c2cc(C)nn2CC)nc2cc(C(N)=O)ccc21)CCn1c(NC(=O)c2cc(C)nn2CC)nc2cc(C(N)=O)ccc21 [Example 1, Ethyl {3-[5-carbamoyl-2-(1-ethyl-3-methyl-5-pyrazolylcarbonylamino)-1H-1,3-benzimidazol-1-yl]-1-{2-[5-carbamoyl-2-(1-ethyl-3-methyl-5-pyrazolylcarbonylamino)-1H-1,3-benzimidazol-1-yl]ethyl}propoxy}acetate] | 3.2 |  |  |

From EP4534147A1, “STING ANTAGONIST COMPOUNDS” (Sulis Therapeutics ApS, priority 2023, dated 2025)
